{"source": "patent US20230390541A1", "about": "“Dermal Patch for Transdermal Modulation of Ghrelin Pathway” (Resarcion, LLC, priority 2019, published 2023)", "origin": "cited, not measured here", "details": "shortest structural analog among truncated ghrelin analogs"}
{"substance": "Ser^3(octanoyl)-ghrelin (1-5)", "values": [{"measurement": "activity relative to native ghrelin", "value": "activity similar to the native hormone"}]}
